Assay results taken from PubChem BioAssay (NCI).
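96-well plates; 48 h exposure; 5 concentrations. Endpoints by linear interpolation between flanking doses. Not reached: highest tested concentration assigned. GI50: concentration for 50% inhibition of growth. At the TGI there is no net growth.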

Tests used:
Assay in all cases: DTP human tumour cell line panel, 48 h
[1] = system: SNB-19 CNS
[2] = system: SF-295 CNS
[3] = system: HCT-15 colon
[4] = system: HCT-116 colon
[5] = system: MALME-3M melanoma
[6] = system: OVCAR-3 ovarian
[7] = system: SF-539 CNS
[8] = system: MOLT-4 leukemia
[9] = system: LOX IMVI melanoma
[10] = system: IGROV1 ovarian
[11] = system: SF-268 CNS
[12] = system: UO-31 renal
[13] = system: SK-OV-3 ovarian
[14] = system: HT29 colon
[15] = system: NCI-H460 lung
[16] = system: U251 CNS
[17] = system: UACC-257 melanoma
[18] = system: DU-145 prostate
[19] = system: HL-60(TB) leukemia
[20] = system: SK-MEL-28 melanoma
[21] = system: ACHN renal
[22] = system: HOP-62 NSCLC
[23] = system: A549 NSCLC
[24] = system: TK-10 renal
[25] = system: NCI-H23 lung
[26] = system: RPMI-8226 leukemia
[27] = system: MDA-MB-435
[28] = system: SK-MEL-5 melanoma
[29] = system: A498 renal
[30] = system: K-562 leukemia
[31] = system: SNB-75 CNS
[32] = system: NCI-H226 lung
[33] = system: SN12C renal
[34] = system: SK-MEL-2 melanoma
[35] = system: HCC-2998 colon
[36] = system: MCF7 breast
[37] = system: SR leukemia
[38] = system: OVCAR-5 ovarian
[39] = system: 786-0 renal
[40] = system: BT-549 breast
[41] = system: NCI/ADR-RES ovarian
[42] = system: COLO 205 colon
[43] = system: CAKI-1 renal
[44] = system: SW-620 colon
[45] = system: NCI-H522 lung
[46] = system: PC-3 prostate
[47] = system: EKVX NSCLC
[48] = system: HS 578T breast
[49] = system: T-47D breast
[50] = system: CCRF-CEM leukemia
[51] = system: HOP-92 NSCLC
[52] = system: OVCAR-4 ovarian
[53] = system: MDA-MB-231 breast
[54] = system: UACC-62 melanoma
[55] = system: M14 melanoma
[56] = system: KM12 colon
[57] = system: OVCAR-8 ovarian
[58] = system: RXF 393 renal

Cc1cc(C)c(CNC(=O)c2cc(-c3ccc(CN4CCOCC4)cc3)cc3c2cnn3C2CCCC2)c(=O)[nH]1
GI50 [1]: 24.7 µM
TGI [1]: 77.1 µM
GI50 [2]: 16.6 µM
TGI [2]: 36.5 µM
GI50 [3]: 10.2 µM
TGI [3]: 25.9 µM
GI50 [4]: 18.2 µM
TGI [4]: 50.2 µM
GI50 [5]: 16.7 µM
TGI [5]: 34.1 µM
GI50 [6]: 13.4 µM
TGI [6]: 30.9 µM
GI50 [7]: 16.1 µM
TGI [7]: 34.4 µM
GI50 [8]: 17.5 µM
TGI [8]: > 100 µM
GI50 [9]: 15.3 µM
TGI [9]: 34.2 µM
GI50 [10]: 17.6 µM
TGI [10]: 67.8 µM
GI50 [11]: 13.9 µM
TGI [11]: 43.8 µM
GI50 [12]: 8.8 µM
TGI [12]: 26.6 µM
GI50 [13]: 20.1 µM
TGI [13]: 44.5 µM
GI50 [14]: 11.8 µM
TGI [14]: 27.1 µM
GI50 [15]: 16.1 µM
TGI [15]: 43 µM
GI50 [16]: 15.2 µM
TGI [16]: 31.7 µM
GI50 [17]: 21 µM
TGI [17]: 42.8 µM
GI50 [18]: 21.5 µM
TGI [18]: 81 µM
GI50 [19]: 16.5 µM
TGI [19]: 55.2 µM
GI50 [20]: 15.7 µM
TGI [20]: 32.4 µM
GI50 [21]: 15.1 µM
TGI [21]: 34.6 µM
GI50 [22]: 18 µM
TGI [22]: 39.3 µM
GI50 [23]: 17.8 µM
TGI [23]: 41.6 µM
GI50 [24]: 16.4 µM
TGI [24]: 35.9 µM
GI50 [25]: 18.5 µM
TGI [25]: 47.8 µM
GI50 [26]: 13.7 µM
TGI [26]: 50.7 µM
GI50 [27]: 15.9 µM
TGI [27]: 35 µM
GI50 [28]: 13.7 µM
TGI [28]: 27.3 µM
GI50 [29]: 15.5 µM
TGI [29]: 34.6 µM
GI50 [30]: 21.4 µM
TGI [30]: > 100 µM
GI50 [31]: 12.6 µM
TGI [31]: 32.4 µM
GI50 [32]: 17.5 µM
TGI [32]: 37 µM
GI50 [33]: 19.3 µM
TGI [33]: 46.6 µM
GI50 [34]: 17.8 µM
TGI [34]: 35.4 µM
GI50 [35]: 16.6 µM
TGI [35]: 35.5 µM
GI50 [36]: 10.8 µM
TGI [36]: 28.8 µM
GI50 [37]: 22.4 µM
TGI [37]: 65.5 µM
GI50 [38]: 22.1 µM
TGI [38]: 63.5 µM
GI50 [39]: 17.6 µM
TGI [39]: 42.4 µM
GI50 [40]: 17.1 µM
TGI [40]: 41.7 µM
GI50 [41]: 15.1 µM
TGI [41]: 42.5 µM
GI50 [42]: 14.7 µM
TGI [42]: 34 µM
GI50 [43]: 16.1 µM
TGI [43]: 42.2 µM
GI50 [44]: 25.3 µM
TGI [44]: > 100 µM
GI50 [45]: 16.2 µM
TGI [45]: 30.4 µM
GI50 [46]: 17.9 µM
TGI [46]: 54.6 µM
GI50 [47]: 11.8 µM
TGI [47]: 28.2 µM
GI50 [48]: 19.1 µM
TGI [48]: 64 µM
GI50 [49]: 12.9 µM
TGI [49]: 50.4 µM
GI50 [50]: 26.3 µM
TGI [50]: 97.5 µM
GI50 [51]: 10.2 µM
TGI [51]: 27.2 µM
GI50 [52]: 21.3 µM
TGI [52]: 91.6 µM
GI50 [53]: 19.9 µM
TGI [53]: 51.7 µM
GI50 [54]: 17.8 µM
TGI [54]: 43.2 µM
GI50 [55]: 18.8 µM
TGI [55]: 43.1 µM
GI50 [56]: 18.6 µM
TGI [56]: 49 µM
GI50 [57]: 17.3 µM
TGI [57]: 57.9 µM
GI50 [58]: 14.6 µM
TGI [58]: 32.6 µM
